Experimental data published in patent US10125134B2 (Mirati Therapeutics, Inc., priority 2016, dated 2018).
Where two headings read alike, the source gives them in different places.

Legend:
KRas G12C = KRas G12C (Homo sapiens, UniProt P01116, C118S/C51S/C80L/G12C); assay: KRas G12C Modification Assay (LCMS detection of covalent adduct); format: binding
Method: A 10 μL aliquot of each protein solution was then transferred to a 384 well microtiter plate. Initial compound stocks were generated at fifty times their desired final assay concentration in DMSO.
Exemplary compounds of Formula (I) were diluted 25-fold into K-Ras Assay Buffer to a final of two times their final concentration. A 10 μL aliquot of each diluted compound solution was then added to each of the protein solutions in the microtiter plate to initiate reaction. […] At each time point, the reactions were quenched with 20 μL of a 25 mM acetic acid solution. […] Once all reactions were quenched, the plates were heat sealed and the samples were injected into a LC/MS system for data acquisition.
Samples were injected in their liquid phase onto a C-3 reverse phase column to remove assay buffer and prepare the samples for mass spectrometer. The proteins were eluted from the column using an acetonitrile gradient and fed directly into the mass analyzer. Initial raw data analysis took place in Agilent MassHunter software immediately post data acquisition.
Raw data analysis of the intact protein was exclusively a deconvolution of the multiple charge states of each protein in solution using a maximum entropy deconvolution provided in Mass Hunter. To minimize complexity, only the data over limited mass ranges were considered for analysis, with a minimum of one Dalton mass step intervals. The heights of all masses identified during raw data analysis were exported to be further analyzed in Spotfire® data analysis software.
Final data analysis was a multistep process in the Spotfire® data analysis software package. Briefly, each protein mass was calculated as a percent of the total signal of that sample, that percentage was then normalized to the percentage of signal of the protein in the absence of reactive compounds. Those normalized signals were reported as normalized percent of control (POC). […] Key: “A”≤25% POC; “B”>25% POC−≤50% POC; “C”>50% POC and ND=not determined.

[1] = test system: NCI-H358 cells (express KRas G12C), Phospho-ERK; assay: Cellular inhibition of KRas G12C: Phospho-ERK in NCI-H358 cells; format: cell-based; conditions: Homo sapiens
Method: The cellular inhibition of KRAs G12C by exemplary compounds of the present invention was determined by measuring the amount of a downstream marker of KRas activity, phosphorylated ERK (“Phospho-ERK”).
Cells were plated in poly-D-Lysine coated 96-well plates at a concentration of 50,000 cells/well and allowed to attach for 8-12 hours. Diluted compounds were then added at a final concentration of 0.5% DMSO. After 3 hours, the medium was removed, 150 μL of 4% formaldehyde was added and the plates were incubated for 20 minutes. The plates were washed with PBS, and permeabilized using 150 μL of ice cold 100% methanol for 10 minutes. Non-specific antibody binding to the plates was blocked using 100 μL Licor Blocking Buffer (Li-Cor Biotechnology, Lincoln Nebr.) for 1 hour at room temperature. Positive control samples and samples lacking cells were parallel processed with test samples as standards.
The amount Phospho-ERK was determined using an antibody specific for the phosphorylated form of ERK and compared to the amount of GAPDH. […] The plates were incubated for 2 hours at room temperature. The plates were washed with PBS+0.05% Tween 20.
Secondary antibodies used to visualize primary antibodies were added as follows: Anti-rabbit-680 diluted 1:1000 and Anti-mouse-800 diluted 1:1000 in Licor Block+0.05% Tween 20 and incubated for 1 hour at room temperature. The plates were washed with PBS+0.05% Tween 20. A 100 μL aliquot of PBS was added to each well and the plates were read on a LICOR AERIUS plate reader.
The pERK(Thr202/Tyr204) signal was normalized with the GAPDH signal and percent of DMSO control values were calculated. IC50 values were generated using a 4 parameter fit of the dose response curve. Key: “A”≥0.0001−≤1 μM; and “B”>1 μM.

[2] = normalized percent of control, tested at 5 μM concentration for 3 hours
[3] = NCI-H358, 3 h, pERK(Thr202/Tyr204) normalized with GAPDH, NCI-H358 cells, 3 hours, read-out: IC50
[4] = pERK(Thr202/Tyr204) normalized with GAPDH, NCI-H358 cells, 3 hours, read-out: IC50

POC (KRas G12C; [2])	SMILES	IC50 [1, 3] [µM]	IC50 [1, 4] [µM]	POC (KRas G12C; 5 µM)	IC50 ([1]; NCI-H358, 3 h) [µM]
C (“C”>50% POC)	C=CC(=O)N1CCN(c2nc(OC[C@@H]3CCCN3C)nc3c2CCN(c2cccc(Cl)c2C(F)(F)F)C3)C[C@@H]1CC#N [Example 427, 2-((S)-1-acryloyl-4-(7-(3-chloro-2-(trifluoromethyl)phenyl)-2-(((S)-1-methylpyrrolidin-2-yl)methoxy)-5,6,7,8-tetrahydropyrido[3,4-d]pyrimidin-4-yl)piperazin-2-yl)acetonitrile]	0.0001 to 1			
C (“C”>50% POC)	C=CC(=O)N1CCN(c2nc(OC[C@@H]3CCCN3CC)nc3c2CCN(c2cccc4ccccc24)C3)CC1CC#N (stereo partly drawn) [Example 233, 2-(1-acryloyl-4-(2-(((S)-1-ethylpyrrolidin-2-yl)methoxy)-7-(naphthalen-1-yl)-5,6,7,8-tetrahydropyrido[3,4-d]pyrimidin-4-yl)piperazin-2-yl)acetonitrile]	0.0001 to 1			
C (“C”>50% POC)	C=CC(=O)N1CCN(c2nc(OC[C@@H]3C[C@@H](O)CN3C)nc3c2CCN(c2cccc(Cl)c2C(F)(F)F)C3)C[C@@H]1CC#N [Example 425, 2-((S)-1-acryloyl-4-(7-(3-chloro-2-(trifluoromethyl)phenyl)-2-(((2S,4R)-4-hydroxy-1-methylpyrrolidin-2-yl)methoxy)-5,6,7,8-tetrahydropyrido[3,4-d]pyrimidin-4-yl)piperazin-2-yl)acetonitrile]	0.0001 to 1			
C (“C”>50% POC)	C=CC(=O)N1CCN(c2nc(OCCO)nc3c2CCN(c2cc(O)cc4ccccc24)C3)CC1 [Example 142, 1-[4-[2-(2-hydroxyethoxy)-7-(3-hydroxy-1-naphthyl)-6,8-dihydro-5H-pyrido[3,4-d]pyrimidin-4-yl]piperazin-1-yl]prop-2-en-1-one]	> 1			
C (“C”>50% POC)	CC#CC(=O)N1CCN(c2nc(OC[C@@H]3CCCN3C)nc3c2CCN(c2cccc(C)c2C)C3)C[C@@H]1CC#N [Example 389, 2-((S)-1-(but-2-ynoyl)-4-(7-(2,3-dimethylphenyl)-2-(((S)-1-methylpyrrolidin-2-yl)methoxy)-5,6,7,8-tetrahydropyrido[3,4-d]pyrimidin-4-yl)piperazin-2-yl)acetonitrile]	> 1			
C (“C”>50% POC)	C=CC(=O)N1CCN(c2nc(OCCCN3CCOCC3)nc3c2CCN(c2cc(O)ccc2SC(F)(F)F)C3)CC1 [Example 214, 1-(4-(7-(5-hydroxy-2-((trifluoromethyl)thio)phenyl)-2-(3-morpholinopropoxy)-5,6,7,8-tetrahydropyrido[3,4-d]pyrimidin-4-yl)piperazin-1-yl)prop-2-en-1-one]		> 1		
C (“C”>50% POC)	C=CC(=O)N1CCN(c2nc(OCCN3CCCCC3)nc3c2CCN(c2c(C)ccc4[nH]ncc24)C3)CC1 [Example 164]		> 1		
A (“A”≤25% POC)	C=CC(=O)N1CCN(c2ncnc3c2CCN(c2nc(N)cc4ccccc24)C3)CC1 [Example 54, 1-[4-[7-(3-amino-1-isoquinolyl)-6,8-dihydro-5H-pyrido[3,4-d]pyrimidin-4-yl]piperazin-1-yl]prop-2-en-1-one]		> 1		
C (“C”>50% POC)	C=CC(=O)N1CCN(c2nc(OCCN3CCC(OC)C3)nc3c2CCN(c2cc(O)cc4ccccc24)C3)CC1 (stereo not drawn) [Example 136, 1-[4-[7-(3-hydroxy-1-naphthyl)-2-[2-(3-methoxypyrrolidin-1-yl)ethoxy]-6,8-dihydro-5H-pyrido[3,4-d]pyrimidin-4-yl]piperazin-1-yl]prop-2-en-1-one]	> 1			
C (“C”>50% POC)	C=CC(=O)N1CCN(c2nc(OCC3CCN(C)C3)nc3c2CCN(c2c(C)ccc4[nH]ncc24)C3)CC1 (stereo not drawn) [Example 161, 1-[4-[7-(5-methyl-1H-indazol-4-yl)-2-[(1-methylpyrrolidin-3-yl)methoxy]-6,8-dihydro-5H-pyrido[3,4-d]pyrimidin-4-yl]piperazin-1-yl]prop-2-en-1-one]		> 1		
C (“C”>50% POC)	C=CC(=O)N1CCN(c2nc(OC[C@H]3CCCCN3C)nc3c2CCN(c2cccc4ccccc24)C3)C[C@@H]1CC#N [Example 431, 2-((S)-1-acryloyl-4-(2-(((R)-1-methylpiperidin-2-yl)methoxy)-7-(naphthalen-1-yl)-5,6,7,8-tetrahydropyrido[3,4-d]pyrimidin-4-yl)piperazin-2-yl)acetonitrile]	0.0001 to 1			
	C=CC(=O)N1CCN(c2nc(OCCCN3CCOCC3)nc3c2CCN(c2cc(O)cc4sc(C)nc24)C3)CC1 [Example 166, 1-[4-[7-(6-hydroxy-2-methyl-1,3-benzothiazol-4-yl)-2-(3-morpholinopropoxy)-6,8-dihydro-5H-pyrido[3,4-d]pyrimidin-4-yl]piperazin-1-yl]prop-2-en-1-one]			B (key: “A”≤25% POC; “B”>25% POC−≤50% POC; “C”>50% POC)	> 1
B (“B”>25% POC−≤50% POC)	C=CC(=O)N1CCN(c2nc(O[C@H](C)CN(C)C)nc3c2CCN(c2c(C)ccc4[nH]ncc24)C3)CC1 [Example 162, 1-[4-[2-[(1R)-2-(dimethylamino)-1-methyl-ethoxy]-7-(5-methyl-1H-indazol-4-yl)-6,8-dihydro-5H-pyrido[3,4-d]pyrimidin-4-yl]piperazin-1-yl]prop-2-en-1-one]		> 1		
A (“A”≤25% POC)	C=CC(=O)N1CCN(c2nc(O[C@H](C)CN(C)C)nc3c2CCN(c2c(O)ccc(C)c2F)C3)CC1 [Example 84, (R)-1-(4-(2-((1-(dimethylamino)propan-2-yl)oxy)-7-(2-fluoro-6-hydroxy-3-methylphenyl)-5,6,7,8-tetrahydropyrido[3,4-d]pyrimidin-4-yl)piperazin-1-yl)prop-2-en-1-one]		> 1		
C (“C”>50% POC)	C=CC(=O)N1CCN(c2nc(OC[C@H]3COCCN3C)nc3c2CCN(c2cccc4ccccc24)C3)CC1CC#N (stereo partly drawn) [Example 273, 2-(1-acryloyl-4-(2-(((R)-4-methylmorpholin-3-yl)methoxy)-7-(naphthalen-1-yl)-5,6,7,8-tetrahydropyrido[3,4-d]pyrimidin-4-yl)piperazin-2-yl)acetonitrile]	> 1			
C (“C”>50% POC)	C=CC(=O)N1CCN(c2nc(OC[C@H]3CCCN3CC)nc3c2CCN(c2cccc4ccccc24)C3)C[C@@H]1CC#N [Example 334, 2-[(2S)-4-[2-[[(2R)-1-ethylpyrrolidin-2-yl]methoxy]-7-(1-naphthyl)-6,8-dihydro-5H-pyrido[3,4-d]pyrimidin-4-yl]-1-prop-2-enoyl-piperazin-2-yl]acetonitrile]	0.0001 to 1			
C (“C”>50% POC)	C=CC(=O)N1CCN(c2nc(OCCN3CCC(F)(F)CC3)nc3c2CCN(c2cccc4cccc(Cl)c24)C3)C[C@@H]1CC#N [Example 452, 2-[(2S)-4-[7-(8-chloro-1-naphthyl)-2-[2-(4,4-difluoro-1-piperidyl)ethoxy]-6,8-dihydro-5H-pyrido[3,4-d]pyrimidin-4-yl]-1-prop-2-enoyl-piperazin-2-yl]acetonitrile]	0.0001 to 1			
C (“C”>50% POC)	C=CC(=O)N1CCN(c2nc(OCCN(C)C)nc3c2CCN(c2cc(O)cc4ccccc24)C3)C(CO)C1 (stereo not drawn) [Example 53, 1-(4-(2-(2-(dimethylamino)ethoxy)-7-(3-hydroxynaphthalen-1-yl)-5,6,7,8-tetrahydropyrido[3,4-d]pyrimidin-4-yl)-3-(hydroxymethyl)piperazin-1-yl)prop-2-en-1-one]	> 1			
